Test results: patent publication US20260306500A1, “METHOD OF INHIBITING ADENOSINE TRIPHOSPHATE SECRETION, METHOD OF INHIBITING HEPATIC STELLATE CELL ACTIVATION, METHOD OF DEACTIVATING HEPATIC STELLATE CELL, METHOD OF TREATING HEPATIC FIBROSIS, METHOD OF TREATING NON-ALCOHOLIC STEATOHEPATITIS, AND METHOD OF TREATING PSORIASIS” (Kurume University, priority 2023, published 2026)

Key:
[1] = tested on: human epidermal keratinocytes; test: ATP secretion from human epidermal keratinocytes promoted by ionomycin; type: cell-based; conditions: for ATP secretion level relative to control solution (RLU ratio): 1 μM imeglimin, N=3 (FIG. 4)
Protocol: Human epidermal keratinocytes (Cryopreserved HEK, Lot 1758, Cell Applications Inc.) were cultured using an Epivita Keratinocyte Growth Medium Kit according to the manufacturer's instructions. The procedure was as follows. A supplement medium was added to a hydrocortisone-containing basal medium included in the medium preparation kit to prepare a complete medium. The medium in the dish was removed by aspiration. The cells were washed with 5 ml of BSS (Gbco), and then the BSS was removed by aspiration. After addition of 5 to 6 ml of trypsin/EDTA solution (Gbco), the dish was incubated at 37° C. for 2 minutes. After addition of 5 ml of trypsin neutralization solution, the resulting cell suspension was transferred into two 15-ml Falcon tubes, and centrifuged at 200×g for 5 minutes. The supernatant was removed by aspiration, and the pelleted cell cluster was suspended in 2 ml of the medium at 4.5×10^5 cells/ml. An aliquot of the resulting cell suspension was cryopreserved, while another aliquot was cultured and subjected to measurement.
ATP secretion by human epidermal keratinocytes (hereinafter referred to as “keratinocytes”) was measured. Regarding control solutions, Krebs-Ringer HEPES supplemented with 0.2% BSA and 25 mM glucose (hereinafter also referred to as “Krebs/Iono(−)”) was used as a negative control, and a solution prepared by adding 5 μM ionomycin to this solution (hereinafter also referred to as “Krebs/Iono(+)”) was used as a positive control for ATP secretion. Ionomycin is a Ca^2+ ionophore. Addition of ionomycin to cells is known to promote influx of extracellular Ca^2+ into the cells to increase the intracellular Ca^2+ concentration, resulting in enhancement of ATP secretion. Test solutions were prepared by adding clodronate to Krebs/Iono(−) or Krebs/Iono(+) to a final concentration of 0.1 μM (hereinafter also referred to as “Clo/Iono(−)” or “Clo/Iono(+)”, respectively) (N=3).
Keratinocytes were cultured at 2.5×10^4 cells/well in a 24-well plate at 37° C. in 5% CO2 for 4 days. The medium was removed by aspiration, replaced with Krebs/Iono(−) or Clo/Iono(−), and incubated at 37° C. for 6 hours. These solutions were then removed by aspiration, and the content of each well incubated with Krebs/Iono(−) was replaced with 300 μl of a control solution (Krebs/Iono(−) or Krebs/Iono(+)), while the content of each well incubated with Clo/Iono(−) was replaced with 300 μl of a test solution (Clo/Iono(−) or Clo/Iono(+)). After further incubation at 37° C. for 20 minutes, 200 μl of the supernatant was collected. The collected supernatant was immediately treated on a heat block at 95° C. for 10 minutes, to inactivate ectonucleotidase. ATP in the supernatant was quantified using a Dojindo ATP assay kit−Luminescence (manufactured by Dojindo Laboratories).
Keratinocytes were cultured in the same manner as in Example 1, and ATP secretion from the keratinocytes was measured. Krebs/Iono(−), or a solution prepared by adding 10 μM imeglimin, 0.1 μM eicosapentaenoic acid (EPA), 1 μM EPA, or 10 μM clodronate to Krebs/Iono(−) was used (N=4).
After culturing keratinocytes, the medium was removed by aspiration, and replaced with Krebs/Iono(−), or Krebs/Iono(−) supplemented with 10 μM imeglimin, 0.1 μM EPA, 1 μM EPA, or 10 μM clodronate, followed by incubation for 6 hours. Subsequently, the solution was replaced with either a control solution (Krebs/Iono(−) or Krebs/Iono(+)) or a test solution (Krebs/Iono(+) supplemented with 10 μM imeglimin, 0.1 μM EPA, 1 μM EPA, or 10 μM clodronate), followed by incubation at 37° C. for 20 minutes and then collection of 200 μl of the supernatant. The collected supernatant was immediately treated on a heat block at 95° C. for 10 minutes to inactivate ectonucleotidase. ATP in the supernatant was quantified using a Dojindo ATP assay kit—Luminescence (manufactured by Dojindo Laboratories). […]

[2] = tested on: α-SMA-positive cells (stellate cells) in mouse liver; test: TAA-induced activation of HSCs in mice: α-SMA immunostaining of liver sections; type: in vivo
Source text: For immunohistochemical analysis, liver samples were fixed in 4% paraformaldehyde, embedded in paraffin, and then sectioned. The sections were stained with HE or PSR. In addition, the paraffin-embedded sections were subjected to immunostaining using an α-SMA monoclonal antibody (1:500, catalog No. A5228, manufactured by Sigma-Aldrich) and an F4/80 monoclonal antibody (1:200, catalog No. MCA497GA, manufactured by AbD Serotec). The cell specimens were observed using a microscope (BZ-X700 series, manufactured by Keyence) or a confocal laser microscope (FV1000, manufactured by Olympus Corporation). The number of F4/80-positive cells was counted in four high-power fields per section. The α-SMA-positive area and the PSR-positive area were quantified using the image analysis software Fiji-ImageJ (1.54f).
In accordance with Example 15, immunostaining of α-SMA in liver sections and observation by fluorescence microscopy were performed for the normal control group, the TAA group, and the TAA+IMG group, and for a TAA+Clo group, which was treated in the same manner as the TAA+IMG group except that clodronate, instead of imeglimin, was administered at 30 mg/kg by blending it in the drinking water from 1 week after the start of TAA administration.

[3] = tested on: human epidermal keratinocytes; test: ATP secretion from keratinocytes upon LPS stimulation; type: cell-based; conditions: 18 hours, 10 μg/ml LPS, N=8 (FIG. 8)
Protocol: Keratinocytes were cultured in the same manner as in Example 1. Keratinocytes were cultured at 2.5×10^4 cells/well in a 24-well plate at 37° C. in 5% CO2 for 4 days. The medium was replaced with a test solution (Hanks' balanced salt solution (HBSS) (manufactured by Gibco) supplemented with imeglimin, metformin, or clodronate), and then incubation was performed at 37° C. in 5% CO2 for 18 hours. Thereafter, LPS (10 μg/ml) was added thereto, and incubation was further carried out for 10 minutes, followed by collection of 200 μl of the supernatant. The supernatant was immediately treated on a heat block at 95° C. for 10 minutes, and ATP in the supernatant was quantified using an ATP Assay Kit−Luminescence (manufactured by Dojindo) (N=8).

| SMILES | ATP secretion inhibitory effect ([1]; PEP at not less than 3 mM (data not shown)) | ATP secretion level promoted by ionomycin ([1]; 0.1 μM clodronate, 6 h preincubation, 5 μM ionomycin, N=3 (FIG. 1)) | TAA-induced increase in α-SMA-positive reaction ([2]; 30 mg/kg clodronate in drinking water (FIG. 29)) | LPS-stimulated ATP secretion ([3]; 10 μM) | ATP secretion inhibitory effect at low concentration ([1]; 0.1 μM, 6 h preincubation, ionomycin) | ATP secretion level relative to control solution (RLU ratio) ([1]; incubation time 2 hours, ionomycin) | ATP secretion level relative to control solution (RLU ratio) ([1]; incubation time 6 hours, ionomycin) | ATP secretion inhibitory effect, comparison ([1]; 10 μM imeglimin vs 1 μM EPA and 10 μM clodronate) | ATP secretion inhibitory effect relative to metformin ([1]; 0.1, 1, 10 μM, 6 h preincubation, N=3 (FIG. 3)) | α-SMA immunostaining, effect compared with clodronate ([2]; imeglimin 200 mg/kg p.o. (FIG. 30)) | LPS-stimulated ATP secretion ([3]; 1 μM) |
| --- | --- | --- | --- | --- | --- | --- | --- | --- | --- | --- | --- |
| C=C(OP(=O)(O)O)C(=O)O [PEP, phosphoenolpyruvic acid] | relatively strong ATP secretion inhibitory effect |  |  |  |  |  |  |  |  |  |  |
| O=P(O)(O)C(Cl)(Cl)P(=O)(O)O [clodronate] |  | almost the same as those in Krebs/Iono(−) and Clo/Iono(−) | markedly suppressed | almost completely inhibited |  |  |  |  |  |  |  |
| C[C@@H]1N=C(N)NC(N(C)C)=N1 [imeglimin] |  |  |  | almost completely inhibited | exhibit an ATP secretion inhibitory effect | about 85% | about 40% | comparable to those of 1 μM EPA and 10 μM clodronate | slightly higher ATP secretion inhibitory effect than metformin | effect similar to that of clodronate | almost completely inhibited |
